Like-named read-outs stand apart in the source and are kept apart here.
Assays:
ER = ER (Homo sapiens (Human), UniProt P03372); assay: In-cell western blot analysis of relative ER percentage (Compounds B1-B278); format: cell-based; details: ER degradation, 16 hours, read-out: ICW DC50
Protocol: In-cell western blot analysis. Cells are seeded in multi-well plates (e.g., at 40,000 or 10,000 cells/well). Diluted compounds at certain concentration are added (final 0.5% DMSO) and cells are incubated for […] (e.g., 16 hours). Formaldehyde (e.g., PBS:FA=9:1) is added and followed by washing with PBS. The cells are blocked with Licor blocking buffer (Li-Cor). The relative ER percentage in treated cells are obtained by comparing the values of treated wells to those in untreated and DMSO-treated wells as 100%.
In-cell western blot analysis. a. seed cells in black-sided/clear bottom 96- or 384-well plates at 40,000 or 10,000 cells/well, overnight; b. add diluted compounds (final 0.5% DMSO), 16 hours. 16 h later, remove medium, add 100 μL or 25 μL of 3.7-4.0% formaldehyde (PBS:FA=9:1), RT 20 min, no shaking; c. wash with PBS, and permeabilized with 100 μL or 25 μL/well of 1×PBS+0.1% Triton X-100 10 minutes; d. block with 100 μL or 25 μL Licor blocking buffer (Li-Cor), RT 1 h, moderate shaking; d. Add 100 μL or 25 μL of anti-ER (cs-8644, 1:500-1,000)+GAPDH(Millipore MAB374, 1:1000) in Block+0.05% Tween 20. RT 2 h, gentle shaking. Negative control: cells plus secondary antibodies (no primary antibodies); e. wash×4 with PBS +0.05-0.1% Tween 20, gentel shaking; f. anti-rabbit-680 and anti-mouse-800 (both 1:1000 in LiCor block +0.05% Tween20, RT 1 h, gentle shaking, no light. LI-COR: 0.2% to reduce background; g. wash×4 with PBS+0.05% Tween 20, gental shaking; h. add 100 μL or 25 μL of PBS to each well and read on CLX plate reader. The relative ER percentage in treated cells were obtained by comparing the values of treated wells to those in untreated and DMSO-treated wells as 100%.

[1] = Cell growth assay (WST-8) (Compounds B1-B278); format: cell-based; details: T47D cell line, WST-8, 4 days, read-out: Cell Growth Inhibition in T47D cell line IC50
Protocol: Cell Growth Assay. The cells are seeded at certain concentration (e.g., at 1500/well) in multi-well plates overnight. Cells are subsequently treated with the compounds. A certain period of time (e.g., 4 days) after the compound treatment, 10% WST-8 reagent is added to the culture medium and incubate under certain condiction (e.g., in a CO2 incubator at 37° C. for 2.5 hours). The absorbance is measured on each sample using a microplate reader at certain wavelength (e.g., 450 nm). The relative absorbance is calculated against the vehicle control from three individually repeats.
Cell Growth Assay. The cells were seeded at 1500/well in 96 well plates overnight. One day after the seeding, they were treated with indicated doses of compounds respectively. 4 days after the compound treatment, 10% WST-8 reagent was added to the culture medium and incubate in a CO2 incubator at 37° C. for 2.5 hours. Before reading, the plate was mixed gently on an orbital shaker for one minute to ensure homogeneous distribution of color. The absorbance was measured of each sample using a microplate reader at a wavelength of 450 nm. The relative absorbance was calculated against the vehicle control from three individually repeats.

Sequence of ER (P03372 whole entry): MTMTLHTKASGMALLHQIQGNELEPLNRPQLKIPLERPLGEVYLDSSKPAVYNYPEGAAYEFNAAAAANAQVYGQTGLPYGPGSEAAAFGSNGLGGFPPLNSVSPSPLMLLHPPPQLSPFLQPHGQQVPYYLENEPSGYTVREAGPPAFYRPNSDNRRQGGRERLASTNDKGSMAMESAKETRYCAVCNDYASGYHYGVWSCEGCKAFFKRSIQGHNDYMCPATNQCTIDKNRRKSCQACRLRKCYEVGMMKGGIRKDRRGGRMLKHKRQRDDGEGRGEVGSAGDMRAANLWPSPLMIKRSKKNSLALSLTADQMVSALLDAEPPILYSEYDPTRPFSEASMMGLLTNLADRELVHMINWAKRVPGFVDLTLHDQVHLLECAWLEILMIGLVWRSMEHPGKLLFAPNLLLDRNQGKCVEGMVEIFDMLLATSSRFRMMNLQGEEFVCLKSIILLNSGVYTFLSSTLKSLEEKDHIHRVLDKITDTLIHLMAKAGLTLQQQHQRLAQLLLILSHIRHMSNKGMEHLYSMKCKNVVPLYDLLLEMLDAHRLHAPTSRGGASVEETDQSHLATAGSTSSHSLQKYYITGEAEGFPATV

| Compound | DC50 (ER) [nM] | IC50 ([1]; 96 h) [nM] | IC50 [1] [nM] |
| --- | --- | --- | --- |
| C[C@@H]1Cc2c([nH]c3ccccc23)[C@@H](c2c(F)cc(N3CC(C(=O)N4CCN5c6ccc7c(c6OC[C@H]5C4)CN(C4CCC(=O)NC4=O)C7=O)C3)cc2F)N1CC(F)F (mixture of isomers) [Compound B251, 3-((RS)-7-(1-(4-((1R,3R)-2-(2,2-difluoroethyl)-3-methyl-2,3,4,9-tetrahydro-1H-pyrido[3,4-b]indol-1-yl)-3,5-difluorophenyl)azetidine-3-carbonyl)-1-oxo-1,3,5,5a,6,7,8,9-octahydro-2H-pyrazino[1′,2′:4,5][1,4]oxazino[2,3-e]isoindol-2-yl)piperidine-2,6-dione] | 10 to 100 | < 1 |  |
| C[C@@H]1Cc2c([nH]c3ccccc23)[C@@H](c2c(F)cc(N3CCC(CN4CCN5c6ccc7c(c6OC[C@H]5C4)CN(C4CCC(=O)NC4=O)C7=O)CC3)cc2F)N1CC(F)F (mixture of isomers) [Compound B253, 3-((RS)-7-((1-(4-((1R,3R)-2-(2,2-difluoroethyl)-3-methyl-2,3,4,9-tetrahydro-1H-pyrido[3,4-b]indol-1-yl)-3,5-difluorophenyl)piperidin-4-yl)methyl)-1-oxo-1,3,5,5a,6,7,8,9-octahydro-2H-pyrazino[1′,2′:4,5][1,4]oxazino[2,3-e]isoindol-2-yl)piperidine-2,6-dione] | 10 to 100 | < 1 |  |
| C[C@@H]1Cc2c([nH]c3ccccc23)[C@@H](c2cnc(N3CCC(CN4CCN5c6ccc7c(c6OC[C@H]5C4)CN(C4CCC(=O)NC4=O)C7=O)CC3)nc2)N1CC(F)F (mixture of isomers) [Compound B254, 3-((RS)-7-((1-(5-((1R,3R)-2-(2,2-difluoroethyl)-3-methyl-2,3,4,9-tetrahydro-1H-pyrido[3,4-b]indol-1-yl)pyrimidin-2-yl)piperidin-4-yl)methyl)-1-oxo-1,3,5,5a,6,7,8,9-octahydro-2H-pyrazino[1′,2′:4,5][1,4]oxazino[2,3-e]isoindol-2-yl)piperidine-2,6-dione] | 10 to 100 | < 1 |  |
| C[C@@H]1Cc2c([nH]c3ccccc23)[C@@H](c2cnc(N3CCC(CN4CCN5c6ccc7c(c6OC[C@H]5C4)CN(C4CCC(=O)NC4=O)C7=O)CC3)nc2)N1CC(F)F (mixture of isomers) [Compound B255, 3-((RS)-7-((1-(5-((1R,3R)-2-(2,2-difluoroethyl)-3-methyl-2,3,4,9-tetrahydro-1H-pyrido[3,4-b]indol-1-yl)pyrimidin-2-yl)piperidin-4-yl)methyl)-1-oxo-1,3,5,5a,6,7,8,9-octahydro-2H-pyrazino[1′,2′:4,5][1,4]oxazino[2,3-e]isoindol-2-yl)piperidine-2,6-dione] | > 100 |  | < 1 |
| C[C@@H]1Cc2c([nH]c3ccccc23)[C@@H](c2cnc(N3CCC(CN4CCN5c6ccc7c(c6OC[C@H]5C4)CN(C4CCC(=O)NC4=O)C7=O)CC3)nc2)N1CC(C)(C)F (mixture of isomers) [Compound B256, 3-((RS)-7-((1-(5-((1R,3R)-2-(2-fluoro-2-methylpropyl)-3-methyl-2,3,4,9-tetrahydro-1H-pyrido[3,4-b]indol-1-yl)pyrimidin-2-yl)piperidin-4-yl)methyl)-1-oxo-1,3,5,5a,6,7,8,9-octahydro-2H-pyrazino[1′,2′:4,5][1,4]oxazino[2,3-e]isoindol-2-yl)piperidine-2,6-dione] | > 100 | < 1 |  |
| C[C@@H]1Cc2c([nH]c3ccccc23)[C@@H](c2c(F)cc(N3CCC(CN4CCN5c6ccc7c(c6OC[C@H]5C4)CN(C4CCC(=O)NC4=O)C7=O)CC3)cc2F)N1CC(C)(C)F (mixture of isomers) [Compound B257, 3-((RS)-7-((1-(3,5-difluoro-4-((1R,3R)-2-(2-fluoro-2-methylpropyl)-3-methyl-2,3,4,9-tetrahydro-1H-pyrido[3,4-b]indol-1-yl)phenyl)piperidin-4-yl)methyl)-1-oxo-1,3,5,5a,6,7,8,9-octahydro-2H-pyrazino[1′,2′:4,5][1,4]oxazino[2,3-e]isoindol-2-yl)piperidine-2,6-dione] | 10 to 100 | < 1 |  |
| C[C@@H]1Cc2c([nH]c3ccccc23)[C@@H](c2c(F)cc(N3CCC(CN4CCN5c6ccc7c(c6OC[C@H]5C4)CN(C4CCC(=O)NC4=O)C7=O)CC3)cc2F)N1CC(C)(C)F (mixture of isomers) [Compound B259, 3-((RS)-7-((1-(3,5-difluoro-4-((1R,3R)-2-(2-fluoro-2-methylpropyl)-3-methyl-2,3,4,9-tetrahydro-1H-pyrido[3,4-b]indol-1-yl)phenyl)piperidin-4-yl)methyl)-1-oxo-1,3,5,5a,6,7,8,9-octahydro-2H-pyrazino[1′,2′:4,5][1,4]oxazino[2,3-e]isoindol-2-yl)piperidine-2,6-dione] | > 100 |  | < 1 |
| C[C@@H]1Cc2c([nH]c3ccccc23)[C@@H](c2cnc(N3CCC(OCCN4CCN5c6cc7c(cc6OC[C@@H]5C4)C(=O)N([C@H]4CCC(=O)NC4=O)C7)CC3)nc2)N1CC(F)F [Compound 1B24, (S)-3-((S)-3-(2-((1-(5-((1R,3R)-2-(2,2-difluoroethyl)-3-methyl-2,3,4,9-tetrahydro-1H-pyrido[3,4-b]indol-1-yl)pyrimidin-2-yl)piperidin-4-yl)oxy)ethyl)-8-oxo-1,2,3,4,4a,5,8,10-octahydro-9H-pyrazino[1,2′:4,5][1,4]oxazino[2,3-f]isoindol-9-yl)piperidine-2,6-dione] | 10 to 100 | 1 to 10 |  |
| C[C@@H]1Cc2c([nH]c3ccccc23)[C@@H](c2c(F)cc(-c3ncc(C(=O)N4CCN5c6cc7c(cc6OC[C@@H]5C4)C(=O)N([C@H]4CCC(=O)NC4=O)C7)cn3)cc2F)N1CC(F)F [Compound B117, (S)-3-((S)-3-(2-(4-((1R,3R)-2-(2,2-difluoroethyl)-3-methyl-2,3,4,9-tetrahydro-1H-pyrido[3,4-b]indol-1-yl)-3,5-difluorophenyl)pyrimidine-5-carbonyl)-8-oxo-1,2,3,4,4a,5,8,10-octahydro-9H-pyrazino[1′,2′:4,5][1,4]oxazino[2,3-f]isoindol-9-yl)piperidine-2,6-dione] | 10 to 100 | 1 to 10 |  |
| C[C@@H]1Cc2c([nH]c3ccccc23)[C@@H](c2c(F)cc(N3CCN(CC(=O)N4CCN5c6ccc7c(c6OC[C@H]5C4)CN(C4CCC(=O)NC4=O)C7=O)CC3)cc2F)N1CC(F)F (stereo partly drawn) [Compound B152, 3-((R)-7-(2-(4-(4-((1R,3R)-2-(2,2-difluoroethyl)-3-methyl-2,3,4,9-tetrahydro-1H-pyrido[3,4-b]indol-1-yl)-3,5-difluorophenyl)piperazin-1-yl)acetyl)-1-oxo-1,3,5,5a,6,7,8,9-octahydro-2H-pyrazino[1′,2′:4,5][1,4]oxazino[2,3-e]isoindol-2-yl)piperidine-2,6-dione] | > 100 |  |  |
| COc1cc(N2CCC3(CC2)CC(CN2CCN4c5ccc6c(c5OC[C@H]4C2)CN(C2CCC(=O)NC2=O)C6=O)CO3)ccc1[C@@H]1c2[nH]c3ccccc3c2C[C@@H](C)N1CC(C)(C)F (stereo partly drawn) [Compound B265, 3-((5aR)-7-((8-(4-((1R,3R)-2-(2-fluoro-2-methylpropyl)-3-methyl-2,3,4,9-tetrahydro-1H-pyrido[3,4-b]indol-1-yl)-3-methoxyphenyl)-1-oxa-8-azaspiro[4.5]decan-3-yl)methyl)-1-oxo-1,3,5,5a,6,7,8,9-octahydro-2H-pyrazino[1′,2′:4,5][1,4]oxazino[2,3-e]isoindol-2-yl)piperidine-2,6-dione] | 10 to 100 |  |  |
